Experiment: recombinant barcode read abundance after kanamycin selection (control-corrected) (log10(CPM+1)); higher = more efficient recombination; sequences stand for … in AGTGCAGAGAAAATCGGCCAGTTTTCTCTGCCTGCAGTCCGCATGCCGT…AGATTTATGCAGCGGACTGCCTTTCTCCCAAAGTGATAAACCGGACAGTATCATGGACCGGTTTTCCCGGTAATCCGTATTTGCAAGGTTGGTTTCACT; site = the 11-nt target
Summary of the method: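 Duplicate cultures were plated either on chloramphenicol/ampicillin LB agar, serving as control, or on chloramphenicol/ampicillin/kanamycin with 0.1 mM IPTG. These came from a pooled E. coli library co-electroporated with a donor plasmid, each member pairing a target with an IS621 bridge RNA target-binding loop. Recombination efficiency equals averaged, control-corrected counts per million of recombinant-junction barcodes. It is listed as log10(CPM+1).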
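Note: IS621 recombinase and bridge RNA in Escherichia coli cells.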

Sequence | recombinant barcode read abundance (log10)
GGCAACTCTTGGGTTCTAACCTGTTGCCT (site AAGTTAGCTCC) | 0
GGCAACTCTTGGGTTCTAACCTGTTGCCT (site GGCAACTCTAG) | 0.0853
GGCACCGCTTGGGTTCTAACCTGTTGCCT (site GGCACAGCTAG) | 0.0859
GGCACCGCTTGGGTTCTAACCTGTTGCCT (site GGCACCGCTAG) | 0.905
GGCACCGCTTGGGTTCTAACCTGTTGCCT (site GGCACGGCTAG) | 0.164
GGCACCGCTTGGGTTCTAACCTGTTGCCT (site GGCACTGCTAG) | 0.0527
GGCAGACCTTGGGTTCTAACCTGTTGCCT (site GGCAGACCTAG) | 1
GGCAGACCTTGGGTTCTAACCTGTTGCCT (site GGCAGTCCTCG) | 0.373
GGCATATCTTGGGTTCTAACCTGTTGCCT (site AGTATATCTAG) | 0.0602
GGCATATCTTGGGTTCTAACCTGTTGCCT (site GGCATATCTAG) | 0.048
GGCATCCCTTGGGTTCTAACCTGTTGCCT (site GGCATCCCTAG) | 0.337
GGCATCCCTTGGGTTCTAACCTGTTGCCT (site GGCCTCCCTAG) | 0.258
GGCATCCCTTGGGTTCTAACCTGTTGCCT (site GGCGTCCCTAG) | 0.184
GGCATCCCTTGGGTTCTAACCTGTTGCCT (site GGCTTCCCTAG) | 0.145
GGCCGGACTTGGGTTCTAACCTGTTGCCT (site GGCCGGACTAG) | 0.937
GGCCGGACTTGGGTTCTAACCTGTTGCCT (site GGCCGGCCTAG) | 0.253
GGCCGGACTTGGGTTCTAACCTGTTGCCT (site GGCCGGGCTAG) | 0.112
GGCCGGACTTGGGTTCTAACCTGTTGCCT (site GGCCGGTCTAG) | 0.021
GGCCGGGCTTGGGTTCTAACCTGTTGCCT (site GGCCGGACTAG) | 0.143
GGCCGGGCTTGGGTTCTAACCTGTTGCCT (site GGCCGGCCTAG) | 0.0912
GGCCGGGCTTGGGTTCTAACCTGTTGCCT (site GGCCGGGCTAG) | 0.219
GGCCGGGCTTGGGTTCTAACCTGTTGCCT (site GGCCGGTCTAG) | 0.0839

Sequence | recombinant barcode read abundance (log10)
GGCCGTCCTTGGGTTCTAACCTGTTGCAG (site ACCCGTCCTCT) | 0.184
GGCCGTCCTTGGGTTCTAACCTGTTGCAG (site GGCCGTCCTCT) | 0.118
GGCGCCTCTTGGGTTCTAACCTGTTGCGC (site AATCTAACTAG) | 0.139
GGCGCCTCTTGGGTTCTAACCTGTTGCGC (site GGCGCCTCTGC) | 0.777
GGCGCGTCTTGGGTTCTAACCTGTTGCCT (site GGCGCATCTAG) | 0.607
GGCGCGTCTTGGGTTCTAACCTGTTGCCT (site GGCGCGTCTAG) | 0.557
GGCGTCACTTGGGTTCTAACCTGTTGCCT (site GGCGACCCTAG) | 0.111
GGCGTCACTTGGGTTCTAACCTGTTGCCT (site GGCGTCACTAG) | 1.24
GGCTAACCTTGGGTTCTAACCTGTTGCCT (site CATCGGACTTT) | 0.0416
GGCTAACCTTGGGTTCTAACCTGTTGCCT (site GGCTAACCTAG) | 1.33
GGCTACCCTTGGGTTCTAACCTGTTGCAA (site CTGGTATCTAA) | 0.148
GGCTACCCTTGGGTTCTAACCTGTTGCAA (site GGCTACCCTTT) | 0.774
GGCTAGACTTGGGTTCTAACCTGTTGCGG (site GGCTAGACTCC) | 1.43
GGCTAGACTTGGGTTCTAACCTGTTGCGG (site GGCTCTACTCC) | 0.0457
GGCTTCTCTTGGGTTCTAACCTGTTGCCT (site GGCTTCTCTAG) | 1.22
GGCTTCTCTTGGGTTCTAACCTGTTGCCT (site TGCCTCTCTAG) | 0.0687
GGGAACCCTTGGGTTCTAACCTGTTGCTA (site GGGAACCCTAA) | 0.147
GGGAACCCTTGGGTTCTAACCTGTTGCTA (site GGGAACCCTCA) | 0.132
GGGAACCCTTGGGTTCTAACCTGTTGCTA (site GGGAACCCTGA) | 0.0297
GGGAACCCTTGGGTTCTAACCTGTTGCTA (site GGGAACCCTTA) | 1.29
GGGACCTCTTGGGTTCTAACCTGTTGCGG (site GGGACCTCTAC) | 1.25
GGGACCTCTTGGGTTCTAACCTGTTGCGG (site GGGACCTCTCC) | 1.94

Sequence | recombinant barcode read abundance (log10)
GGGATGTCTTGGGTTCTAACCTGTTGCCT (site GAGATGTCTAG) | 0.444
GGGATGTCTTGGGTTCTAACCTGTTGCCT (site GCGATGTCTAG) | 0.128
GGGATGTCTTGGGTTCTAACCTGTTGCCT (site GGGATGTCTAG) | 2.04
GGGATGTCTTGGGTTCTAACCTGTTGCCT (site GTGATGTCTAG) | 0.211
GGGCAGCCTTGGGTTCTAACCTGTTGCCT (site GGGCAACCTAC) | 0.0939
GGGCAGCCTTGGGTTCTAACCTGTTGCCT (site GGGCAGCCTAG) | 0.458
GGGCATCCTTGGGTTCTAACCTGTTGCTT (site GGGCATCCTAA) | 0.652
GGGCATCCTTGGGTTCTAACCTGTTGCTT (site GTGCACCCTAA) | 0.637
GGGCCGGCTTGGGTTCTAACCTGTTGCCG (site AATGATTCTAC) | 0.292
GGGCCGGCTTGGGTTCTAACCTGTTGCCG (site GGGCCGGCTCG) | 1.14
GGGCCTGCTTGGGTTCTAACCTGTTGCCA (site CTCGACCCTAT) | 0
GGGCCTGCTTGGGTTCTAACCTGTTGCCA (site GGGCCTGCTTG) | 1.18
GGGCTGTCTTGGGTTCTAACCTGTTGCTT (site GGGCTGTCTAA) | 0.705
GGGCTGTCTTGGGTTCTAACCTGTTGCTT (site GGGGTGTCTCA) | 0.37
GGGGAGCCTTGGGTTCTAACCTGTTGCTG (site GGGGAGCCTCA) | 2.9
GGGGAGCCTTGGGTTCTAACCTGTTGCTG (site GGGGAGTCTAA) | 0.358
GGGGATCCTTGGGTTCTAACCTGTTGCCT (site GAGGATCCTAG) | 0.679
GGGGATCCTTGGGTTCTAACCTGTTGCCT (site GGGGATCCTAG) | 2.45
GGGGCACCTTGGGTTCTAACCTGTTGCAT (site GGGGCACCTAA) | 1.56
GGGGCACCTTGGGTTCTAACCTGTTGCAT (site GGGGCACCTAC) | 0.357
GGGGCACCTTGGGTTCTAACCTGTTGCAT (site GGGGCACCTAG) | 0.598
GGGGCACCTTGGGTTCTAACCTGTTGCAT (site GGGGCACCTAT) | 2.89

Sequence | recombinant barcode read abundance (log10)
GGGGCCTCTTGGGTTCTAACCTGTTGCTT (site GGGGCATCTAA) | 0.481
GGGGCCTCTTGGGTTCTAACCTGTTGCTT (site GGGGCCTCTAA) | 2.59
GGGGCCTCTTGGGTTCTAACCTGTTGCTT (site GGGGCGTCTAA) | 0.225
GGGGCCTCTTGGGTTCTAACCTGTTGCTT (site GGGGCTTCTAA) | 0.398
GGGGCGGCTTGGGTTCTAACCTGTTGCCT (site GGGGCGACTAG) | 0.489
GGGGCGGCTTGGGTTCTAACCTGTTGCCT (site GGGGCGCCTAG) | 0.0428
GGGGCGGCTTGGGTTCTAACCTGTTGCCT (site GGGGCGGCTAG) | 1.8
GGGGCGGCTTGGGTTCTAACCTGTTGCCT (site GGGGCGTCTAG) | 0.242
GGGGCGTCTTGGGTTCTAACCTGTTGCCG (site GGGCAGTCTCG) | 0.201
GGGGCGTCTTGGGTTCTAACCTGTTGCCG (site GGGGCGTCTCG) | 1.63
GGGGCGTCTTGGGTTCTAACCTGTTGCCT (site GGGGCGACTAG) | 0.167
GGGGCGTCTTGGGTTCTAACCTGTTGCCT (site GGGGCGCCTAG) | 0.426
GGGGCGTCTTGGGTTCTAACCTGTTGCCT (site GGGGCGGCTAG) | 0.172
GGGGCGTCTTGGGTTCTAACCTGTTGCCT (site GGGGCGTCTAG) | 1.55
GGGGCGTCTTGGGTTCTAACCTGTTGCTG (site GGGGCGTCTCA) | 2.44
GGGGCGTCTTGGGTTCTAACCTGTTGCTG (site TCCATAACTAG) | 0.175
GGGGCTTCTTGGGTTCTAACCTGTTGCCT (site GAGGCTTCTAG) | 0.0126
GGGGCTTCTTGGGTTCTAACCTGTTGCCT (site GCGGCTTCTAG) | 0.207
GGGGCTTCTTGGGTTCTAACCTGTTGCCT (site GGGGCTTCTAG) | 0.919
GGGGCTTCTTGGGTTCTAACCTGTTGCCT (site GTGGCTTCTAG) | 0.245
